Data on 25 molecules can be found in patent US7671061B2, “Methods and compositions for treating pain” (Hydra Biosciences, Inc., priority 2005, dated 2010).

What is called IC50 is the concentration that inhibits the measured activity by half.

For assay [1], the target named is T1, hTRPA1 (Homo sapiens, UniProt O75762, K186N).
T1 construct: expressed in transfected cells; host or cells: HEK293/TREx (Invitrogen), induced with tetracycline
Kind of assay: High throughput Ca2+ fluorescence (Fluo4) assay, AITC stimulation. Format: cell-based. The procedure, abridged: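 Tetracycline-induced HEK293/TREx cells loaded with 1 μM Fluo4/AM for 60 min at room temperature. Compound added for 2 min after a 4-frame baseline, then AITC; fluorescence followed ~3 min.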

Assay [2] has as its target T1, hTRPA1. Kind of assay: TRPA1 patch clamp (perforated patch, AITC-activated current). Format: cell-based. The source says:
Patch clamp experiments permit the detection of currents through the TRPA1 channel in the cell line described above. To permit recording of current at a stable level and prevent the “rundown” observed by other labs, it is necessary to use the perforated patch technique, which prevents dialysis of the cytoplasm with the pipette solution. In normal whole-cell patch clamp recordings, a glass electrode is brought into contact with a single cell and a high-resistance (gigaohm) seal is established with the cell membrane. The membrane is then ruptured to achieve the whole-cell configuration, permitting control of the voltage of the cell membrane and measurement of currents flowing across the membrane using the amplifier attached to the electrode and resulting in the replacement of cytoplasm with the pipette solution. In contrast, in the perforated patch mode, an antibiotic, amphotericin, is present in the pipette solution and diffuses into contact with the cell after the seal is achieved, over the course of several minutes. The amphotericin forms ion-permeable pores in the membrane under the pipette, permitting passage of some ions but maintaining most native cytosolic components. A perfusion system permits control of the extracellular solution, including the addition of blockers and activators of the current. The current can be activated by addition of 5 μM AITC to the solution. […] In some cases, cells were grown in low density overnight on glass coverslips. Patch clamp recordings were made in the whole-cell mode with a holding potential of −40 mV. Every 5 seconds, a voltage ramp was applied from −120 to +100 mV, 400 ms in duration. Currents elicited were quantified at −80 mV and +80 mV. […] The external solution consisted of 150 mM NaCl, 4.5 mM KCl, 3 mM MgCl2, 10 mM HEPES, […], 1 mM EGTA, pH 7.4. Upon addition of AITC, TRPA1 current was induced only in TRPA1-expressing cells and not in parental HEK293 TREx cells. Removal of the AITC stimulus causes most of the current to go away. Potential blockers were tested for ability to block both inward and outward currents in the continued presence of AITC.
For orientation: The patch-clamp technique gives a direct electrical read-out from membranes.

[3] abbreviates: Table 1, read-out: hTRPA1 Fluo4 IC50.
The mark [4] stands for this setting: Table 1, read-out: hTRPA1 Patch IC50.
Setting [5] is: Table 2, read-out: hTRPA1 Fluor IC50.
The mark [6] stands for this setting: Table 2, inward current, read-out: hTRPA1 Patch Inwd IC50.

Where only a bound is given, the exact number is not on record here.

T1 sequence (O75762 whole entry K186N): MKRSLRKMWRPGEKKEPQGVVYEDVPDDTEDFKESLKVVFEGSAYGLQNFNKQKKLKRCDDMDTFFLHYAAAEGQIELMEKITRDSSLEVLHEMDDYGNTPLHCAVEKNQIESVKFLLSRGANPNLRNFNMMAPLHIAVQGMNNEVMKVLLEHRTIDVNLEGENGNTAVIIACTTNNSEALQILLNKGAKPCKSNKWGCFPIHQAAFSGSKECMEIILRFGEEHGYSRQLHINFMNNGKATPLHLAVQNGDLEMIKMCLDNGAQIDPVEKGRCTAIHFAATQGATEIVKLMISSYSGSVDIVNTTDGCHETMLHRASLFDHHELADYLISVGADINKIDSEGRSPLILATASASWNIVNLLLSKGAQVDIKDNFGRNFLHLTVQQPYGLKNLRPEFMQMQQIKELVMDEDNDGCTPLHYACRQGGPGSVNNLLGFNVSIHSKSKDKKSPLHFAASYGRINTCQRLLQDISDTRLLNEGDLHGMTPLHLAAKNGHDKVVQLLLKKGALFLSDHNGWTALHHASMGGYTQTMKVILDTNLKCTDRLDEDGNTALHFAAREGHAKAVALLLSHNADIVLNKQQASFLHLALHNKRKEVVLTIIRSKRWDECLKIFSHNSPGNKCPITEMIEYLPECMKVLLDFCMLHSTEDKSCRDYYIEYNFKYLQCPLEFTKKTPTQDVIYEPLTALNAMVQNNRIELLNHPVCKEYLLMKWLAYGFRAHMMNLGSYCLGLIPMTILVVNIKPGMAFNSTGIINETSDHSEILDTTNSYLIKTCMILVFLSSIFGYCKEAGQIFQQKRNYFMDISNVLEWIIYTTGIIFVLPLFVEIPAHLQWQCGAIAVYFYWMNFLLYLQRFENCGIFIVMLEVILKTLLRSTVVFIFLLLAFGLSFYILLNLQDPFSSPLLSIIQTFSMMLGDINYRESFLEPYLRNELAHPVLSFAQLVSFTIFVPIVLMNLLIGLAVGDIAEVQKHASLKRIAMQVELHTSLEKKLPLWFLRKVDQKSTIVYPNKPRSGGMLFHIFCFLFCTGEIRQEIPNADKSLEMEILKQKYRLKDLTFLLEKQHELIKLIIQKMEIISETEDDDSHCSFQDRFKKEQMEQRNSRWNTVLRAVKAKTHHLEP

In the case of `CCOC(=O)C1=C(c2ccccc2)NC(=S)NC1c1ccc(OC)cc1` (centres unmarked), the IC50 in assay [1] (setting [3]) and in assay [2] (setting [4]) was above 10 µM throughout.

As for `COC(=O)C1=C(c2ccccc2)NC(=S)NC1c1ccc(F)cc1` (centres unmarked), the 50% inhibitory concentration (IC50) in assay [1] (setting [3]) and in assay [2] (setting [4]) was above 10 µM in each case.

In the case of `Cn1c(=O)c2c(ncn2CC(=O)Nc2ccc(Oc3ccccc3)cc2)n(C)c1=O` [Compound 262], the figures for the IC50 in assay [1] (setting [5]) and in assay [2] (setting [6]) were at most 5 µM and at most 0.5 µM, respectively.

In the case of `Cc1cc(Br)ccc1NC(=O)Cn1cnc2c1c(=O)n(C)c(=O)n2C` [Compound 204], the figures for the half-inhibitory concentration (IC50) in assay [1] (setting [5]) and in assay [2] (setting [6]) were at most 10 µM and above 10 µM, respectively.

For the molecule `Cn1c(=O)c2c(ncn2CC(=O)Nc2ccc(F)c(Cl)c2)n(C)c1=O` [Compound 281], the half-maximal inhibitory concentration (IC50) in assay [1] (setting [5]) is at most 5 µM; in assay [2] (setting [6]) it was at most 10 µM.

Take `Cc1ccccc1CNC(=O)Cn1cnc2c1c(=O)n(C)c(=O)n2C` [Compound 313]: the IC50 is above 10 µM in assay [1] (setting [5]) and at most 10 µM in assay [2] (setting [6]).

`Cn1c(=O)c2c(ncn2CC(=O)Nc2ccc(F)cc2)n(C)c1=O` [Compound 209]: the figures for the IC50 in assay [1] (setting [5]) and in assay [2] (setting [6]) were at most 10 µM and above 10 µM, respectively.

In the case of `Cn1c(=O)c2c(ncn2CC(=O)Nc2ccc(C#N)cc2)n(C)c1=O` [Compound 214], the half-inhibitory concentration (IC50) in assay [1] (setting [5]) and in assay [2] (setting [6]) was at most 10 µM in each case.

As to `Cn1c(=O)c2c(ncn2CC(=O)Nc2ccc(N3CCCCC3)cc2)n(C)c1=O` [Compound 252], the IC50 in assay [1] (setting [5]) is at most 5 µM; in assay [2] (setting [6]), at most 10 µM.

Consider `CCOC(=O)C1=C(c2ccccc2)NC(=S)NC1c1ccc(OC(C)C)cc1` (centres unmarked), for which the IC50 in assay [1] (setting [3]) was at least 20 µM; in assay [2] (setting [4]), above 10 µM.

Take `COC(=O)C1=C(C)NC(=S)NC1c1ccc(OC)c(Br)c1` (centres unmarked): the results for the IC50 in assay [1] (setting [3]) and in assay [2] (setting [4]) were at most 5 µM and at most 1 µM, respectively.

On to `COC(=O)C1=C(C)NC(=S)NC1c1c(Cl)cccc1Cl` (centres unmarked), for which the IC50 in assay [1] (setting [3]) was at most 5 µM; in assay [2] (setting [4]) it was at most 1 µM.

`CCCC1=C(C(=O)OCC)C(c2ccccc2Cl)NC(=O)N1` (centres unmarked): the concentration for half-maximal inhibition (IC50) was at most 5 µM in assay [1] (setting [3]) and above 10 µM in assay [2] (setting [4]).

As to `Cn1c(=O)c2c(ncn2CC(=O)Nc2ccc(S(N)(=O)=O)cc2)n(C)c1=O` [Compound 228], the half-maximal inhibitory concentration (IC50) in assay [1] (setting [5]) and in assay [2] (setting [6]) was above 10 µM throughout.

`Cn1c(=O)c2c(ncn2CC(=O)Nc2ccc(Cl)c(C(F)(F)F)c2)n(C)c1=O` [Compound 267]: the IC50 in assay [1] (setting [5]) and in assay [2] (setting [6]) was at most 1 µM in each case.

For `Cn1c(=O)c2c(ncn2CC(=O)NCCc2ccc(Cl)cc2)n(C)c1=O` [Compound 268, N-[2-(4-Chlorophenyl)-ethyl]-2-(1,3-dimethyl-2,6-dioxo-1,2,3,6-tetrahydro-purin-7-yl)-acetamide], the 50% inhibitory concentration (IC50) in assay [1] (setting [5]) is above 10 µM; in assay [2] (setting [6]), at most 1 µM.

`Cn1c(=O)c2c(ncn2CC(=O)NCc2cccnc2)n(C)c1=O` [Compound 206]: the IC50 in assay [1] (setting [5]) is above 10 µM; in assay [2] (setting [6]), at most 10 µM.

In the case of `CC(C)Cc1nnc(NC(=O)Cn2cnc3c2c(=O)n(C)c(=O)n3C)s1` [Compound 235], the figures for the IC50 in assay [1] (setting [5]) and in assay [2] (setting [6]) were above 10 µM and at most 10 µM, respectively.

Regarding `Cn1c(=O)c2c(ncn2CC(=O)Nc2ccncc2)n(C)c1=O` [Compound 211], the 50% inhibitory concentration (IC50) in assay [1] (setting [5]) and in assay [2] (setting [6]) was above 10 µM in each case.

For `COC(=O)C1=C(C)NC(=S)NC1c1cccc(Cl)c1Cl` (centres unmarked), the figures for the IC50 in assay [1] (setting [3]) and in assay [2] (setting [4]) were at most 5 µM and at most 1 µM, respectively.

For the molecule `Cn1c(=O)c2c(ncn2CC(=O)NCC(C)(c2ccccc2)c2ccccc2)n(C)c1=O` [Compound 348], the results for the 50% inhibitory concentration (IC50) in assay [1] (setting [5]) and in assay [2] (setting [6]) were at most 5 µM and above 10 µM, respectively.

Take `Cn1c(=O)c2c(ncn2CC(=O)NCCSCc2ccccc2)n(C)c1=O` [Compound 329]: the IC50 in assay [1] (setting [5]) and in assay [2] (setting [6]) was at most 10 µM in each case.

As for `CCOC(=O)C1=C(C)NC(=S)NC1c1cccc(O)c1` (centres unmarked), the IC50 was at most 10 µM in assay [1] (setting [3]) and above 10 µM in assay [2] (setting [4]).

For the molecule `CCOc1ccc(NC(=O)Cn2cnc3c2c(=O)n(C)c(=O)n3C)cc1` [Compound 208], the 50% inhibitory concentration (IC50) was at most 10 µM in assay [1] (setting [5]) and above 10 µM in assay [2] (setting [6]).

In the case of `COc1ccc(NC(=O)Cn2cnc3c2c(=O)n(C)c(=O)n3C)cc1` [Compound 207], the half-maximal inhibitory concentration (IC50) in assay [1] (setting [5]) was above 10 µM; in assay [2] (setting [6]), at most 10 µM.
